How the values were obtained:
Type in all cases: physicochemical
[1] = Solubility in MeOH:Water by slow heating to dissolve at fixed solvent volume; details: organic solvent or mixture, thermodynamic from solid
Protocol: Three solvent compositions were used as MeOH:Water (99:1 vol), (98:2) and (95:5). About 25 mg of Form A was weighed into 2 mL vial and 6 volume solvent was added, then slowly heated to dissolve. For experiment with 5% water, an additional test was conducted with 8 vol solvents.

[2] = Solubility in water and simulated fluids at 37° C. (slurry, HPLC; XRPD of residual solid); details: values based on hemi-sulfate sesqui-hydrate salt; for solubility at 1 h / solubility at 2 days: 37 °C, thermodynamic from solid; for solubility at 1 h: slurry time 1 hr
Protocol: Solubility of Patterns A, B and D were measured in water. The solids were slurried in the fluids for two days and at 37° C. The supernatant was syringe filtered and used for HPLC analysis. For Patterns A and D the solubility measurement was repeated and the sample was taken after 1 hr slurry. A calibration curve was developed using Pattern A. This was not assay corrected and therefore the solubility values are based on the hemi-sulfate, sesqui-hydrate salt.
Both Patterns B and D converted to Pattern A after two days slurry. Pattern D also converted to Pattern A within 1 hour slurry in Fasted state simulated gastric fluid (FaSSGF) or water. […] This could be because of the conversion of Patterns B and D to Pattern A. The solubility data and the resulting XRPD Pattern after the measurement are reported in Table 21.

[3] = Stability study of Form A under temperature/RH storage
[4] = Dynamic Vapor Sorption (DVS)
Protocol: Dynamic Vapor Sorption (DVS) was done using a DVS Intrinsic 1. The sample is loaded into a sample pan and suspended from a microbalance. A typical sample mass for DVS measurement is 25 mg. Nitrogen gas bubbled through distilled water provides the desired relative humidity. A typical measurement comprises the steps: • 1. Equilibrate at 50% RH • 2. 50% to 2%. (50%, 40%, 30%, 20%, 10% and 2%) • a. Hold minimum of 5 mins and maximum of 60 minutes at each humidity. The pass criteria is less than 0.002% change • 3. 2% to 95% (2%, 10%, 20%, 30%, 40%, 50%, 60%, 70%, 80%, 90%, 95%) • b. Hold minimum of 5 mins and maximum of 60 minutes at each humidity. The pass criteria is less than 0.002% change • 4. 95% to 2% (95%, 80%, 70%, 60%, 50%, 40%, 30%, 20%, 10%, 2%) • c. Hold minimum of 5 mins and maximum of 60 minutes at each humidity. The pass criteria is less than 0.002% change • 5. 2% to 50% (2%, 10%, 20%, 30%, 40%, 50%) • d. Hold minimum of 5 mins and maximum of 60 minutes at each humidity. The pass criteria is less than 0.002% change
(§1) The water content by Karl Fisher was about 5.3%. […] A DVS isotherm taken at 40° C. was essentially the same as the one at 25° C. […] Humidity test was conducted on Form A with exposure to 11%, 48%, and 75% relative humidity at 40° C. for 2 weeks followed by XRPD analysis. […] Crystallographic data for Form A is as follows:
Form B tends to hold substantial amount of solvent.
(§2) Form D was determined to be anhydrous with a melting peak at 239° C. See e.g., FIG. 9. DVS of Pattern D was performed and solid picked up about 2% moisture from 2% to 95% relative humidity.

[5] = Humidity / desiccant exposure test followed by XRPD analysis; details: for XRPD after exposure to phosphorus pentoxide (P2O5) granules: one week
Protocol: FIG. 5 (i) depicts X-ray powder diffraction pattern (XRPD) overlay for crystalline hemisulfate salt Form A and after exposure to 11%, 48%, and 75% relative humidity and 40° C. for two weeks. […] FIG. 5 (ii) depicts XRPD overlay for crystalline hemisulfate salt Form A and after exposure to phosphorus pentoxide (P2O5) granules at room temperature and 50° C. for one week, as well as ambient temperature in a vial for 24 hrs.
as §1, §2

O=C(c1ccc(NS(=O)(=O)c2cccc3cccnc23)cc1)N1CCN(CC2CC2)CC1 [Form A, 1-(cyclopropylmethyl)-4-(4-(quinoline-8-sulfonamido)benzoyl)piperazin-1-ium hemisulfate sesquihydrate]
Solubility ([1]; MeOH:Water (95:5), 6 vol, temperature when dissolution 60 ° C.): 167000 µg/mL | Solubility ([1]; MeOH:Water (95:5), 8 vol, temperature when dissolution 50 ° C.): 125000 µg/mL | Solubility ([1]; MeOH:Water (98:2), 6 vol, temperature when dissolution 35 ° C.): 167000 µg/mL | Solubility ([1]; MeOH:Water (99:1), 6 vol, temperature when dissolution 23 ° C.): > 167000 µg/mL | solubility at 1 h ([2]; FaSSGF, fassgf or other biorelevant): 7070 µg/mL | solubility at 2 days ([2]; FaSSGF, fassgf or other biorelevant, slurry time 2 days): 6800 µg/mL | Solubility ([2]; FaSSIF, slurry time 2 days, hemisulfate sesquihydrate): 0.24 mg Solid/mL solvent | solubility at 1 h ([2]; water): 3050 µg/mL | solubility at 2 days ([2]; water, slurry time 2 days): 2690 µg/mL | degradation in stability study ([3]; one month under 40±2° C./75±5% RH): No degradation | degradation in stability study ([3]; three months at 30±2° C./65±5% RH): No degradation | degradation in stability study ([3]; three months under 25±2° C./60±5% RH): No degradation | degradation in stability study ([3]; three months under 40±2° C./75% RH): No degradation | degradation in stability study ([3]; twelve months under 25±2° C./60±5% RH): No degradation | moisture picked up in DVS ([4]; 25° C., from 2% to 95% relative humidity): about 1.3% | XRPD after DVS ([4]; Form A: DVS at 25° C. and 40° C., hemisulfate sesquihydrate): remained unchanged | XRPD after humidity test ([5]; 11%, 48%, and 75% relative humidity at 40° C. for 2 weeks): remained unchanged | XRPD after exposure to phosphorus pentoxide (P2O5) granules ([5]; 50° C.): slightly shifted | XRPD peaks after P2O5 at 50° C. then exposure to ambient ([5]; ambient for 24 hrs, changes reversible): shifted back to original positions | XRPD after exposure to phosphorus pentoxide (P2O5) granules ([5]; room temperature): no change
